Common to all, as to type: cell-based, human
The test system of experiment [1] is K562 cells. Description: Measurement of the amount of hemoglobin produced by K562 cells (porphyrin fluorescence). To be noted: for hemoglobin production promoting action: FIG. 1. How it is done: Compound 1 was synthesized through a method disclosed in International publication WO 03/02703 (Example 13) and dissolved in dimethyl sulfoxide (DMSO). The concentration of the solution was adjusted as appropriate through dilution. An equiamount of DMSO was employed as a control solution.
Cells of human proerythroblast cell line K562 (obtained from ATCC) were added to a complete culture medium (RPMI-1640 medium containing 10% fetal bovine serum), and the resultant cells (1×10^5 cells/mL) were seeded into each well of 24-well plate (2 mL/well). A solution of compound 1 (×1000) was added to the plate (2 μL/well), and cells were cultured in a CO2 incubator (37° C., 5% CO2) for three days. The medium was renewed, and cells were further cultured for three days.
The cultured cells were collected and counted. The number of cells in each sample was adjusted to 3×10^5, and the intensity of the fluorescence attributed to a porphyrin ring was measured, to thereby determine the hemoglobin level. Specifically, cells collected through centrifugation were suspended in 2M oxalic acid (500 μL), and the suspension was boiled for 30 minutes and cooled. Fluorescence intensity was measured by means of a fluorescence microplate reader (Spectra MAX Gemini EM, product of Molecular Device) ([…]).

The subject of experiment [2] is γ-globin mRNA in K562 cells. As to the kind of experiment: γ-globin mRNA level in K562 cells by real-time PCR (TaqMan). The following applies: 0.3-μM-added group, cultured three days. How it is done: K562 cells (1×10^5 cells/mL) were seeded into each well of 6-well plate (4 mL/well). A solution of compound 1 (×1000) was added to the plate (4 μL/well), and cells were cultured in a CO2 incubator (37° C., 5% CO2) for three days. The cultured cells were collected, and RNA was prepared from the cells by means of a RNeasy mini column (product of Qiagen). Subsequently, cDNA was synthesized from the thus-obtained RNA by use of reverse transcriptase. Through real-time PCR employing a TaqMan probe according to a protocol of Applied Bio-Systems, γ-globin mRNA level was determined (ABI PRISM7900HT System, product of Applied Bio-Systems). In Example 2, the following primers and probe were employed (SEQ ID NOs: 1 to 3): […]
forward primer (GGTTCTTTGACAGCTTTG, SEQ ID NO: 1);
reverse primer (CCTTCTTGCCATGTGCCTT, SEQ ID NO: 2); and
fluorescence probe (CCTCTGCCTCTGCCATC, SEQ ID NO: 3).
These primers and probe are custom synthesis products of Qiagen.

Experiment [3] concerns K562 cells. As to the kind of experiment: HbF-producing cells (F cells) in K562 cell population by flow cytometry with FITC-labeled anti-HbF antibody. The following applies: 0.1-μM compound, cultured three days. How it is done:
K562 cells (1×10^5 cells/mL) were seeded into each well of 24-well plate (2 mL/well). A solution of compound 1 (×1000) was added to the plate (2 μL/well), and cells were cultured in a CO2 incubator (37° C., 5% CO2) for three days. The cultured cells were collected through centrifugation and treated for 10 minutes with phosphate buffered saline (PBS) containing 0.05% glutaraldehyde/0.1% bovine serum albumin (BSA). The liquid was removed from the mixture through centrifugation, to thereby obtain pellets. Subsequently, 0.1% BSA/PBS was added to the separated pellets, and the same treatment was performed three times, to thereby wash the cells. The thus-washed cells were subjected, for five minutes, to permeation treatment with 0.1% BSA/PBS containing 1% Triton X-100 (0.5 mL) and washed once again. The resultant cells were suspended in 0.1% BSA/PBS (80 μL). FITC-labeled anti-HbF antibody (10 μg/mL, product of Caltag) (5 μL) was added to the suspension, and the mixture was allowed to react at room temperature in the dark for 15 minutes, whereby HbF present in the cells was immunostained. In a similar manner as described above, the stained cells were washed and suspended in 0.1% BSA/PBS containing 1% formaldehyde (0.5 mL). The suspension was analyzed through a method known in the art, by means of a flow cytometer (EPICS XL, product of Beckman Coulter, Inc.).
In general terms: In flow cytometry, cells or beads pass a laser one at a time.

Structures can show the parent of a compound that is named as a salt.

Take `COc1cc(C(=O)OCCCN2CCCN(CCCOC(=O)c3cc(OC)c(OC)c(OC)c3)CC2)cc(OC)c1OC` [dilazep hydrochloride, Dilazep hydrochloride, reference compound]: the “hemoglobin production promoting action” value with K562 cells [1] is recorded as “did not exhibit hemoglobin production promoting action”.
Turning to `COc1ccc(N(Cc2cncc(-c3cc(OC)c(OC)c(OC)c3)c2)C2CCN(Cc3ccnc(-c4cc(OC)c(OC)c(OC)c4)c3)CC2)cc1` [compound 1, 4-[N-(4-Methoxyphenyl)-N-[[5-(3,4,5-trimethoxyphenyl)pyridin-3-yl]methyl]amino]-1-[[2-(3,4,5-trimethoxyphenyl)pyridin-4-yl]methyl]piperidine], the “amount of hemoglobin produced (compound-non-added group = 100%)” value in the experiment with K562 cells [1] (0.3-μM-added group, cultured 3 + 3 days) stood at 435%. The “hemoglobin production promoting action” value in the experiment on K562 cells [1] was “promotes production of hemoglobin in a concentration (dose)-dependent manner”. For the same compound, the “amount of γ-globin mRNA produced (compound-non-added group = 1)” value in experiment [2] was “about four fold”. The “number of HbF-expressing cells (F cells)” value in the experiment on K562 cells [3] is “almost doubled”.
